Measurements as given in US20260125686A1, “COMPOSITIONS AND METHODS FOR MODULATION OF CFTR” (Cystic Fibrosis Foundation, priority 2022, published 2026).

System: Exon 22 truncated CFTR mRNA
Test: ddPCR of Exon 22 truncated CFTR mRNA in 16HBEge-W1282X cells
Assay type: cell-based, human
Settings: for Exon 22 truncated CFTR mRNA: 16HBEge-W1282X (FIG. 13A); for expression of Exon 22 truncated CFTR mRNA enhanced by: ASO alone vs no ASO treatment (FIG. 13A); for fold change increase in E22 trunc mRNA levels relative to (−) ASO (100 μM): in combination SA-08 10 μM
Method: Free uptake ASO treatments in 16HBEs. Steric blocking ASOs were purchased from IDT with Phosphorothioate (PS) backbone and 2-O-Methoxyethyl (2′-MOE) modifications at each nucleotide. Lyophilized steric blocking ASOs were resuspended in PBS+Mg+Ca to 1 mM and stored in frozen aliquots to minimize the effects of freeze thaw cycles. 16HBEge and 16HBE14o- lines were seeded at 0.150×10^6 cells/well in 24 well plates and grown at 37° C./5% CO2 in MEM supplemented with 10% FBS and 1% Penicil-lin/Streptomycin. After 24 hours, media was refreshed with addition of ASOs and RNA was harvested after 48 hours of treatment.
ddPCR Isoform Quantification. RNA was isolated from treated cells with the Aurum Total RNA Mini Kit. One Step reverse transcriptase and quantitative PCR was performed with the iTaq Universal Probes One Step Kit. All qPCR was run on the CFX Touch Deep Well real-time PCR detection system and analyzed with Bio-Rad CFX Maestro 1.0 software (version 4.0.2325.0418). ddPCR assays were composed of: cDNA or digested genomic DNA, 2×ddPCR Supermix for Probes (no dUTP) (1× final) (Bio-Rad), 40× as-say (1× final), and nuclease free water in 20 μl total reaction volume. cDNA synthesis was performed with the iScript Advanced cDNA Synthesis Kit for RT-qPCR (Bio-Rad). Droplets were generated with QX200 Droplet Digital PCR System (Bio-Rad), cycled in the CFX Touch Deep Well real-time PCR detec-tion system (Bio-Rad), and analyzed with the QX200 Droplet Digital PCR system Droplet Reader. (Bio-Rad). Data was analyzed with the Quantasoft software version 1.7.4. ddPCR probes designed to the junction of exon 25/26 were used as a proxy of full-length WT or W1282X CFTR mRNA and probes de-signed to exon 22/intron 22 junction including the first 140 bp of intron 22 were used as a proxy of ex-on 22 truncated CFTR mRNA.
16HBEge-W1282X cells were treated with exemplary ASOs according to some embodiments of the present disclosure. In some cases, the exemplary ASOs were administered at various doses alone, in combination with other ASOs at various doses, or co-administered with Trikafta, and a plurality of assays were used to assess the effects of the ASO treatments in 16HBEge-W1282X cells.
Exon 22 truncated CFTR mRNA was assayed using ddPCR, as depicted in FIGS. 13A-13B. 16HBEge-W1282X cells were treated with SA08 alone, SD10 alone, or SA08 in combination with SD10 at various doses, in the presence of DMSO vehicle control or Trikafta. As depicted in FIG. 13A, Exon 22 truncated CFTR mRNA was increased in all groups treated with exemplary ASO(s) compared to no ASO treatment. Separate treatment of SA08 alone and SD10 alone enhanced the expression of Exon 22 truncated CFTR mRNA by about 100% and by over 200%, from less than 20000 copies per 40 ng RNA to about 30000 copies and about 65000 copies per 40 ng RNA, respectively. The combination of SA08 and SD10 further enhanced the expression of Exon 22 truncated CFTR mRNA to about 80000 copies per 40 ng RNA. […] Full length CFTR W1282X mRNA levels were unchanged in SD-10 & SA-08 or combination treatment compared to untreated or (−) ASO (100 μM) control. (−) ASO (100 μM) E22 trunc mRNA levels were also unchanged compared to untreated cells. […] SD-10 & SA-08 or combination treatments induced a 4.5×, 5.1×, 6.6×, and 7.3× fold change increase in E22 trunc mRNA levels relative to (−) ASO (100 μM) with SD-10 (10 μM), SD-10 (100 μM), SD-10 (10 μM) & SA-08 (10 μM), and SD-10 (100 μM) & SA-08 (10 μM) respectively.

Row | Substance | expression of Exon 22 truncated CFTR mRNA, effect of Trikafta treatment (16HBEge-W1282X, all groups) | Exon 22 truncated CFTR mRNA | expression of Exon 22 truncated CFTR mRNA enhanced by (16HBEge-W1282X) | amount of Exon 22 truncated CFTR mRNA compared to no ASO treatment (16HBEge-W1282X, listed as SA08) | amount of Exon 22 truncated CFTR mRNA compared to no ASO treatment (16HBEge-W1282X, listed as SA-08) | amount of Exon 22 truncated CFTR mRNA compared to no ASO treatment (16HBEge-W1282X) | amount of Exon 22 truncated CFTR mRNA compared to no ASO treatment (16HBEge-W1282X, listed as SD-10) | fold change increase in E22 trunc mRNA levels relative to (−) ASO (100 μM) (SD-10 10 μM, 16HBEge-W1282X) [×] | fold change increase in E22 trunc mRNA levels relative to (−) ASO (100 μM) (SD-10 100 μM, 16HBEge-W1282X) [×]
1 | elexacaftor/ivacaftor/tezacaftor [Trikafta] | did not significantly alter |  |  |  |  |  |  |  | 
2 | ataaggtaaaagtgatgggatc (antisense ATAAGGTAAAAGTGATGGGATC; all 2'-MOE, all phosphorothioate, methylation of C not given here) [SA8, PS backbone, 2′-MOE] |  | about 30000 copies per 40 ng RNA | about 100% | increased | significantly increase |  |  |  | 
3 | aaagcaagcagtgttcaaatct (antisense AAAGCAAGCAGTGTTCAAATCT; all 2'-MOE, all phosphorothioate, methylation of C not given here) [SD10, PS backbone, 2′-MOE] |  | about 65000 copies per 40 ng RNA | over 200% |  |  | increased | significantly increase | 4.5 | 5.1
